For one substance, IC50 results are on record in paper PMC7840603, “Local Stabilization of Hypoxia-Inducible Factor-1α Controls Intestinal Inflammation via Enhanced Gut Barrier Function and Immune Regulation” (Frontiers in Immunology, 2021).

pIC50: −log10 of the molar value.

A word on the pIC50: it is the negative decadic logarithm of the IC50, by convention in mol/L. Low readings indicate a high IC50, high ones a low IC50.

Holding throughout (assay): prolyl hydroxylation assay of HIF-1α peptide, VBC binding by fluorescence polarization
What all share (type): biochemical
In general terms: Fluorescence polarisation rises when a labelled molecule tumbles more slowly, as on binding a larger partner.

The target in one test is T1, HIF-PHD3 (Homo sapiens, UniProt Q9H6Z9).
T1 construct: gene EGLN3

Another test has as its target T2, HIF-PHD2 (Homo sapiens, UniProt Q9GZT9).
T2 construct: gene EGLN1

Another test deals with T3, HIF-PHD1 (Homo sapiens, UniProt Q96KS0).
T3 construct: gene EGLN2
T3 sequence (Q96KS0 whole entry): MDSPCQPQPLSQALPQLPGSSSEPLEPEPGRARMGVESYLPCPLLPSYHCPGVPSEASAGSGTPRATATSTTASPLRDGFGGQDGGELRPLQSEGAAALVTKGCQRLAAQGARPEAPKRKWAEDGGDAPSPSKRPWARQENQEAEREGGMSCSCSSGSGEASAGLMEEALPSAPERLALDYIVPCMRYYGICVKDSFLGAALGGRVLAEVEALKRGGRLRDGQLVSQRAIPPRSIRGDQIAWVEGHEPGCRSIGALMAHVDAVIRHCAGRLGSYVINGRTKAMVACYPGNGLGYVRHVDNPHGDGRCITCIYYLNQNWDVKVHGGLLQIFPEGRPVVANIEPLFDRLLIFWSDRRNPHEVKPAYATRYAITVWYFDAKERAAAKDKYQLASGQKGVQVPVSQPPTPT

T1 sequence (Q9H6Z9 whole entry): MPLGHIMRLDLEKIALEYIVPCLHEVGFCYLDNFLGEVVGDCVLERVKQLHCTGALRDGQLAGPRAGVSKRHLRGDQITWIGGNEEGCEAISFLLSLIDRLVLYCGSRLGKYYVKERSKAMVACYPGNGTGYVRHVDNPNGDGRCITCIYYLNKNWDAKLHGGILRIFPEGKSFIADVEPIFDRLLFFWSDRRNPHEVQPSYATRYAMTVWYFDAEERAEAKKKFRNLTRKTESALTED
T2 sequence (Q9GZT9 2-426): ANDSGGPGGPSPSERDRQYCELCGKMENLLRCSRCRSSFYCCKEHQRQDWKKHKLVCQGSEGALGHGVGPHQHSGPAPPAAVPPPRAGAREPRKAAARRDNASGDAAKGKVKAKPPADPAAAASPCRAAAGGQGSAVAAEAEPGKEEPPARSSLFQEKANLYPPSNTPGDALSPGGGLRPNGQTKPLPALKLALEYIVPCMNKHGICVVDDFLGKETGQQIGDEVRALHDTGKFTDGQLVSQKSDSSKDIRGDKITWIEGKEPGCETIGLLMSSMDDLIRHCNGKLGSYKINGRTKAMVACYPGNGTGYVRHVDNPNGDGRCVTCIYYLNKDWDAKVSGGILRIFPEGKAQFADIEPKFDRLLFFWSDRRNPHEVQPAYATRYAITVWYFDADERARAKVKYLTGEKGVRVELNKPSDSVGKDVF

Consider CG-598, for which the pIC50 at HIF-PHD3 was 7.10; at HIF-PHD2, 7.70; at HIF-PHD1, 7.52.
